Results reported in US7208612B2 (priority 2001, dated 2007).

Key:
V. harveyi LuxS- strain = format: cell-based, Vibrio harveyi
[1] = tested on: V. harveyi LuxP+, LuxS+ reporter strain (AI-2 detection system); assay: Bioluminescence (light production) bioassay in LuxP+, LuxS+ reporter strain that produces its own AI-2; format: cell-based, Vibrio harveyi

| Structure (SMILES) | effect on bioluminescence (V. harveyi LuxS- strain; LuxS- strain) | induction of light production ([1]; addition of 1 mM boric acid during delay period) | induction of light production (fold) ([1]; boric acid concentrations as low as 10 μM) | response to autoinducer (V. harveyi LuxS- strain; latter strains (incl. LuxS-), same experimental conditions) |
| --- | --- | --- | --- | --- |
| OB(O)O [Boric acid] | no effect | substantial induction | 10 |  |
| C[C@@H](O)CC(=O)N[C@H]1CCOC1=O [AI-1] |  |  |  | wild-type responses |
